Test system: Akt
Assay: Akt inhibition assay in cultured N2A cells
Assay type: cell-based, mouse

## NC1(c2ccc(-c3nc4ccn5c(=O)[nH]nc5c4cc3-c3ccccc3)cc2)CCC1 [MK2206]
N2A cells treated with 2 μM Tet34 or controls 24 hrs, then 2 μM MK2206 3hrs
  phosphorylation of GSK3β and Foxo3: diminish
N2A cultures with Tet-CX3CL1-ICD peptides in presence of MK2206
  Tet34 induced effects on Foxo3 phosphorylation: abolished
